In the supplement of paper PMC10307832:

What was measured:
Assay in all cases: relative viability (nuclei count vs DMSO), 5 days (fraction); higher = more cells survive
Entinostat + Pictilisib = compound: Nc1ccccc1NC(=O)c1ccc(CNC(=O)OCc2cccnc2)cc1 [Entinostat] + CS(=O)(=O)N1CCN(Cc2cc3nc(-c4cccc5[nH]ncc45)nc(N4CCOCC4)c3s2)CC1 [Pictilisib] (partner 1 µM)
In short: (§1)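 Lung cancer cell lines in 1536-well plates were dosed by pin tool the day after seeding, either with one drug alone or with a fixed anchor-drug dose plus five library-drug doses (not always all listed) in √10 steps. After 5 days, cells were fixed and their nuclei stained in one step (final 0.05% Triton X-100, 1% formaldehyde, 1 ug/ml Hoechst), then counted on 4× images. Relative viability is the nuclei count in treated wells divided by that in vehicle wells. Values are medians of duplicate plates.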

[1] = compound: C1COCCN1C2=NC(=NC3=C2OC4=C3C=CC=N4)C5=CC(=CC=C5)NC(=O)C6=CN=C(C=C6)N + Cc1nc(NC(=O)N2CCC[C@H]2C(N)=O)sc1-c1ccnc(C(C)(C)C(F)(F)F)c1 [Alpelisib] (partner 2 µM)
In short: as §1

SGI-1776 + Decitabine = compound: CN1CCC(CNc2ccc3ncc(-c4cccc(OC(F)(F)F)c4)n3n2)CC1 [SGI-1776] + Nc1ncn([C@H]2C[C@H](O)[C@@H](CO)O2)c(=O)n1 [Decitabine] (partner 2 µM)
In short: as §1

Entinostat + Phenformin = compound: Nc1ccccc1NC(=O)c1ccc(CNC(=O)OCc2cccnc2)cc1 [Entinostat] + N=C(N)NC(=N)NCCc1ccccc1 [Phenformin] (partner 250 µM)
In short: as §1

Row | Cell Line | relative viability (Entinostat + Pictilisib; first compound 0.02 µM) | relative viability (Entinostat + Pictilisib; first compound 0.06325 µM) | relative viability (Entinostat + Pictilisib; first compound 0.2 µM) | relative viability (Entinostat + Pictilisib; first compound 0.6325 µM) | relative viability (Entinostat + Pictilisib; first compound 2 µM) | relative viability ([1]; first compound 0.06325 µM) | relative viability ([1]; first compound 0.2 µM) | relative viability ([1]; first compound 0.6325 µM) | relative viability ([1]; first compound 2 µM) | relative viability (SGI-1776 + Decitabine; first compound 0.08 µM) | relative viability (SGI-1776 + Decitabine; first compound 0.8 µM) | relative viability (SGI-1776 + Decitabine; first compound 2.53 µM) | relative viability (SGI-1776 + Decitabine; first compound 8 µM) | relative viability ([1]; first compound 0.02 µM) | relative viability (Entinostat + Phenformin; first compound 0.02 µM) | relative viability (Entinostat + Phenformin; first compound 0.06325 µM) | relative viability (Entinostat + Phenformin; first compound 0.2 µM) | relative viability (Entinostat + Phenformin; first compound 0.6325 µM) | relative viability (Entinostat + Phenformin; first compound 2 µM)
1 | IA-LM | 0.391 | 0.43 | 0.508 | 0.311 | 0.133 | 0.853 | 0.582 | 0.609 | 0.43 |  |  |  |  |  |  |  |  |  | 
2 | A549 | 0.551 | 0.555 | 0.451 | 0.364 | 0.2 | 0.793 | 0.644 | 0.63 | 0.346 | 0.303 | 0.238 | 0.285 | 0.097 | 0.64 | 0.166 | 0.207 | 0.197 | 0.169 | 0.101
3 | NCI-H2342 |  |  |  |  |  |  |  |  |  | 0.776 | 0.707 | 0.658 | 0.712 |  | 0.6 | 0.639 | 0.518 | 0.584 | 0.468
4 | NCI-H1623 |  |  |  |  |  |  |  |  |  |  |  |  |  |  | 0.663 | 0.623 | 0.556 | 0.489 | 0.422
5 | SW 1573 | 0.518 | 0.506 | 0.451 | 0.495 | 0.344 | 0.912 | 0.734 | 0.699 | 0.576 | 0.598 | 0.459 | 0.483 | 0.299 | 0.659 | 0.38 | 0.483 | 0.41 | 0.45 | 0.382
6 | NCI-H2087 | 0.741 | 0.822 | 0.826 | 0.353 | 0.315 | 1.12 | 1.05 | 1.12 | 0.619 | 0.331 | 0.26 | 0.278 | 0.215 | 1.05 | 0.425 | 0.474 | 0.416 | 0.319 | 0.168
7 | NCI-H520 | 0.327 | 0.284 | 0.32 | 0.282 | 0.275 | 0.923 | 0.971 | 1.02 | 0.406 | 0.46 | 0.523 | 0.511 | 0.414 | 0.914 | 0.497 | 0.723 | 0.701 | 0.615 | 0.49
8 | Calu-6 | 0.814 | 0.934 | 0.864 | 0.615 | 0.383 | 0.979 | 0.882 | 0.936 | 0.721 |  |  |  |  | 1.09 |  |  |  |  | 
9 | SK-LU-1 | 0.503 | 0.493 | 0.622 | 0.38 | 0.333 | 1.04 | 0.879 | 0.749 | 0.473 | 0.671 | 0.665 | 0.658 | 0.645 | 0.956 | 0.579 | 0.693 | 0.497 | 0.398 | 0.362
10 | LCLC-97TM1 | 0.196 | 0.193 | 0.166 | 0.104 | 0.122 | 0.265 | 0.208 | 0.313 | 0.249 | 0.234 | 0.206 | 0.26 | 0.236 |  | 0.423 | 0.376 | 0.392 | 0.465 | 0.395
11 | HCC-15 | 0.714 | 0.663 | 0.626 | 0.188 | 0.266 | 0.848 | 0.843 | 0.827 | 0.637 | 0.593 | 0.692 | 0.593 | 0.414 | 0.901 | 0.491 | 0.461 | 0.453 | 0.246 | 0.175
12 | H3255 | 0.475 | 0.395 | 0.301 | 0.202 | 0.168 | 0.714 | 0.628 | 0.693 | 0.483 | 0.609 | 0.582 | 0.654 | 0.487 | 0.577 | 0.378 | 0.376 | 0.272 | 0.316 | 0.267
13 | NCI-H1650 | 0.65 | 0.67 | 0.554 | 0.407 | 0.248 |  |  |  |  | 0.456 | 0.388 | 0.473 | 0.342 |  | 0.54 | 0.498 | 0.49 | 0.419 | 0.256
14 | NCI-H522 |  |  |  |  |  |  |  |  |  | 0.632 | 0.595 | 0.728 | 0.562 |  | 0.69 | 0.572 | 0.695 | 0.801 | 0.577
15 | ChaGo-K-1 | 0.917 | 0.645 | 0.68 | 0.411 | 0.471 |  |  |  |  | 0.56 | 0.542 | 0.558 | 0.47 |  | 0.607 | 0.471 | 0.567 | 0.456 | 0.462
16 | NCI-H1648 |  |  |  |  |  |  |  |  |  | 0.432 | 0.414 | 0.461 | 0.497 |  |  |  |  |  | 
17 | NCI-H1703 | 0.263 | 0.274 | 0.314 | 0.384 | 0.304 | 0.315 | 0.288 | 0.289 | 0.201 |  |  |  |  | 0.282 |  |  |  |  | 
18 | EBC-1 | 0.313 | 0.363 | 0.193 | 0.12 | 0.0976 | 0.728 | 0.742 | 0.713 | 0.478 |  |  |  |  | 0.653 |  |  |  |  | 
19 | NCI-H1563 | 0.721 | 0.639 | 0.617 | 0.684 | 0.646 | 0.871 | 0.855 | 0.843 | 0.729 |  |  |  |  | 0.886 | 0.76 | 0.646 | 0.714 | 0.669 | 0.607
